Source: US20110039721A1, “METHOD FOR PREDICTION ABOUT CARCINOGENICITY OF SUBSTANCE IN RODENT” (Chemicals Evaluation and Research Institute, priority 2007, published 2011)

Tested on: mRNA expressed from the genes (A) to (D) in rat liver
Assay: Behavior of genes (mRNA expression level, oligo-DNA microarray) in rat liver after 28-day oral administration
Assay type: in vivo
Protocol: A test solution was prepared by dissolving each of the carcinogens and the non-carcinogens shown in Tables 2 to 6 in the corresponding solvent shown in Tables 2 to 6. Each of the thus prepared test solutions and the solvents used for the preparation was administered by oral gavage to rats in each group. As the rats, male rats (F344 SPF rats) at 5 weeks of age obtained from Charles River Laboratories Japan, Inc. were used. The animals were divided into groups, each containing four individuals. The volume of the solvent administered to the vehicle control group was set to the same volume as that of the test solution administered to the carcinogen administration group or the non-carcinogen administration group. The administration of the test solution or the solvent was performed once daily for 28 days. Apiece was excised from the liver of each of the rats after a lapse of 28 days from the initiation of the administration, and the total RNA was extracted and purified.
The expression level of mRNA was compared between each of the chemical substance administration groups and the corresponding vehicle control group, and genes that satisfy the requirements described in (A) to (D) were selected, respectively.
The case where the expression level of mRNA in the carcinogen administration group or the non-carcinogen administration group is 1.5 times or more or 1/1.5 or less of the expression level of the corresponding mRNA expressed in the control group was determined to be significant. In this connection, the determination as to whether or not the change is significant was performed by taking into consideration the direction of increase or decrease in the expression level. In the case where the direction of increase or decrease is different as compared with the case where another carcinogen was administered, the change was determined to be not significant.

[1] = gene group (A), Unigene No. Rn.167075, mRNA vs vehicle control group
[2] = gene group (C), Unigene No. Rn.120914, mRNA vs vehicle control group
[3] = (C), Unigene Rn.120914, defined direction +, rat liver, oral once daily 28 days

## O=[N+]([O-])c1cc[n+]([O-])c2ccccc12 [TS049, 4-Nitroquinoline-1-oxide]
Gene group (A), Unigene No. Rn.144554, mRNA vs vehicle control group
  Behavior of gene caused by administration of chemical substance, Gene No. 4846: −
[1]
  Behavior of gene caused by administration of chemical substance, Gene No. 2026: −
  Behavior of gene caused by administration of chemical substance, Gene No. 4218: −
Gene group (A), Unigene No. Rn.5834, mRNA vs vehicle control group
  Behavior of gene caused by administration of chemical substance, Gene No. 6182: −
Gene group (A), Unigene No. Rn.9836, mRNA vs vehicle control group
  Behavior of gene caused by administration of chemical substance, Gene No. 5600: −
Gene group (B), Unigene No. Rn.1430, mRNA vs vehicle control group
  Behavior of gene caused by administration of chemical substance, Gene No. 1494: −
Gene group (B), Unigene No. Rn.19329, mRNA vs vehicle control group
  Behavior of gene caused by administration of chemical substance, Gene No. 2045: −
Gene group (B), Unigene No. Rn.21240, mRNA vs vehicle control group
  Behavior of gene caused by administration of chemical substance, Gene No. 2203: −
Gene group (C), Unigene No. Rn.106184, mRNA vs vehicle control group
  Behavior of gene caused by administration of chemical substance, Gene No. 533: −
Gene group (C), Unigene No. Rn.108075, mRNA vs vehicle control group
  Behavior of gene caused by administration of chemical substance, Gene No. 725: −
Gene group (C), Unigene No. Rn.11766, mRNA vs vehicle control group
  Behavior of gene caused by administration of chemical substance, Gene No. 1163: −
Gene group (C), Unigene No. Rn.118529, mRNA vs vehicle control group
  Behavior of gene caused by administration of chemical substance, Gene No. 4973: −
Gene group (C), Unigene No. Rn.119024, mRNA vs vehicle control group
  Behavior of gene caused by administration of chemical substance, Gene No. 4095: −
[2]
  Behavior of gene caused by administration of chemical substance, Gene No. 1334: −
  Behavior of gene caused by administration of chemical substance, Gene No. 6620: −
Gene group (C), Unigene No. Rn.123063, mRNA vs vehicle control group
  Behavior of gene caused by administration of chemical substance, Gene No. 6303: −
Gene group (C), Unigene No. Rn.143213, mRNA vs vehicle control group
  Behavior of gene caused by administration of chemical substance, Gene No. 5878: −
Gene group (C), Unigene No. Rn.144946, mRNA vs vehicle control group
  Behavior of gene caused by administration of chemical substance, Gene No. 1131: −
Gene group (C), Unigene No. Rn.14744, mRNA vs vehicle control group
  Behavior of gene caused by administration of chemical substance, Gene No. 1562: −
Gene group (C), Unigene No. Rn.1647, mRNA vs vehicle control group
  Behavior of gene caused by administration of chemical substance, Gene No. 1741: −
Gene group (C), Unigene No. Rn.164817, mRNA vs vehicle control group
  Behavior of gene caused by administration of chemical substance, Gene No. 893: −
Gene group (C), Unigene No. Rn.167685, mRNA vs vehicle control group
  Behavior of gene caused by administration of chemical substance, Gene No. 6026: −
Gene group (C), Unigene No. Rn.185941, mRNA vs vehicle control group
  Behavior of gene caused by administration of chemical substance, Gene No. 154: −
Gene group (C), Unigene No. Rn.18728, mRNA vs vehicle control group
  Behavior of gene caused by administration of chemical substance, Gene No. 1993: −
Gene group (C), Unigene No. Rn.201760, mRNA vs vehicle control group
  Behavior of gene caused by administration of chemical substance, Gene No. 813: −
Gene group (C), Unigene No. Rn.23969, mRNA vs vehicle control group
  Behavior of gene caused by administration of chemical substance, Gene No. 2494: −
Gene group (C), Unigene No. Rn.24561, mRNA vs vehicle control group
  Behavior of gene caused by administration of chemical substance, Gene No. 2546: −
Gene group (C), Unigene No. Rn.43232, mRNA vs vehicle control group
  Behavior of gene caused by administration of chemical substance, Gene No. 3776: −
Gene group (C), Unigene No. Rn.4620, mRNA vs vehicle control group
  Behavior of gene caused by administration of chemical substance, Gene No. 3929: −
Gene group (C), Unigene No. Rn.9757, mRNA vs vehicle control group
  Behavior of gene caused by administration of chemical substance, Gene No. 1119: −
Gene group (C), Unigene No. Rn.9779, mRNA vs vehicle control group
  Behavior of gene caused by administration of chemical substance, Gene No. 6742: −
Gene group (C), Unigene No. Rn.9862, mRNA vs vehicle control group
  Behavior of gene caused by administration of chemical substance, Gene No. 5634: −
Gene group (D), Unigene No. Rn.9939, mRNA vs vehicle control group
  Behavior of gene caused by administration of chemical substance, Gene No. 5726: +

## C1COCCO1 [TS027, 1,4-Dioxane]
(A), Unigene Rn.144554, defined direction +, rat liver, oral once daily 28 days
  Behavior of gene caused by administration of chemical substance, Gene No. 4846: +
(A), Unigene Rn.167075, defined direction +, rat liver, oral once daily 28 days, significant = 1.5 times or more or 1/1.5 or less of control
  Behavior of gene caused by administration of chemical substance, Gene No. 4218: +
(A), Unigene Rn.167075, defined direction −, rat liver, oral once daily 28 days
  Behavior of gene caused by administration of chemical substance, Gene No. 2026: +
(A), Unigene Rn.5834, defined direction +, rat liver, oral once daily 28 days
  Behavior of gene caused by administration of chemical substance, Gene No. 6182: +
(A), Unigene Rn.9836, defined direction +, rat liver, oral once daily 28 days
  Behavior of gene caused by administration of chemical substance, Gene No. 5600: +
(B), Unigene Rn.1430, defined direction −, rat liver, oral once daily 28 days
  Behavior of gene caused by administration of chemical substance, Gene No. 1494: +
(B), Unigene Rn.19329, defined direction +, rat liver, oral once daily 28 days
  Behavior of gene caused by administration of chemical substance, Gene No. 2045: −
(B), Unigene Rn.21240, defined direction +, rat liver, oral once daily 28 days
  Behavior of gene caused by administration of chemical substance, Gene No. 2203: −
(C), Unigene Rn.106184, defined direction +, rat liver, oral once daily 28 days
  Behavior of gene caused by administration of chemical substance, Gene No. 533: +
(C), Unigene Rn.108075, defined direction −, rat liver, oral once daily 28 days
  Behavior of gene caused by administration of chemical substance, Gene No. 725: −
(C), Unigene Rn.11766, defined direction +, rat liver, oral once daily 28 days
  Behavior of gene caused by administration of chemical substance, Gene No. 1163: −
(C), Unigene Rn.118529, defined direction −, rat liver, oral once daily 28 days
  Behavior of gene caused by administration of chemical substance, Gene No. 4973: −
(C), Unigene Rn.119024, defined direction −, rat liver, oral once daily 28 days
  Behavior of gene caused by administration of chemical substance, Gene No. 4095: −
[3]
  Behavior of gene caused by administration of chemical substance, Gene No. 1334: −
  Behavior of gene caused by administration of chemical substance, Gene No. 6620: −
(C), Unigene Rn.123063, defined direction −, rat liver, oral once daily 28 days
  Behavior of gene caused by administration of chemical substance, Gene No. 6303: −
(C), Unigene Rn.143213, defined direction −, rat liver, oral once daily 28 days
  Behavior of gene caused by administration of chemical substance, Gene No. 5878: −
(C), Unigene Rn.144946, defined direction −, rat liver, oral once daily 28 days
  Behavior of gene caused by administration of chemical substance, Gene No. 1131: −
(C), Unigene Rn.14744, defined direction −, rat liver, oral once daily 28 days
  Behavior of gene caused by administration of chemical substance, Gene No. 1562: +
(C), Unigene Rn.1647, defined direction −, rat liver, oral once daily 28 days
  Behavior of gene caused by administration of chemical substance, Gene No. 1741: +
(C), Unigene Rn.164817, defined direction +, rat liver, oral once daily 28 days
  Behavior of gene caused by administration of chemical substance, Gene No. 893: −
(C), Unigene Rn.167685, defined direction −, rat liver, oral once daily 28 days
  Behavior of gene caused by administration of chemical substance, Gene No. 6026: −
(C), Unigene Rn.185941, defined direction −, rat liver, oral once daily 28 days
  Behavior of gene caused by administration of chemical substance, Gene No. 154: +
(C), Unigene Rn.18728, defined direction −, rat liver, oral once daily 28 days
  Behavior of gene caused by administration of chemical substance, Gene No. 1993: +
(C), Unigene Rn.201760, defined direction +, rat liver, oral once daily 28 days
  Behavior of gene caused by administration of chemical substance, Gene No. 813: +
(C), Unigene Rn.23969, defined direction +, rat liver, oral once daily 28 days
  Behavior of gene caused by administration of chemical substance, Gene No. 2494: −
(C), Unigene Rn.24561, defined direction −, rat liver, oral once daily 28 days
  Behavior of gene caused by administration of chemical substance, Gene No. 2546: −
(C), Unigene Rn.43232, defined direction −, rat liver, oral once daily 28 days
  Behavior of gene caused by administration of chemical substance, Gene No. 3776: −
(C), Unigene Rn.4620, defined direction +, rat liver, oral once daily 28 days
  Behavior of gene caused by administration of chemical substance, Gene No. 3929: −
(C), Unigene Rn.9757, defined direction +, rat liver, oral once daily 28 days
  Behavior of gene caused by administration of chemical substance, Gene No. 1119: +
(C), Unigene Rn.9779, defined direction +, rat liver, oral once daily 28 days
  Behavior of gene caused by administration of chemical substance, Gene No. 6742: +
(C), Unigene Rn.9862, defined direction −, rat liver, oral once daily 28 days
  Behavior of gene caused by administration of chemical substance, Gene No. 5634: −
(D), Unigene Rn.9939, defined direction −, rat liver, oral once daily 28 days
  Behavior of gene caused by administration of chemical substance, Gene No. 5726: −
